Assay results reported in publication PMC6198068, “Discovery of a Novel Nav1.7 Inhibitor From Cyriopagopus albostriatus Venom With Potent Analgesic Efficacy” (Frontiers in Pharmacology, 2018).
Where a SMILES comes first, the peptide text is derived from it. Bridges are numbered along the chain shown (N, C = ends).

Columns and labels:
Nav1.7 = target: T1, Nav1.7 (Homo sapiens, UniProt Q15858); assay: Steady-state slow inactivation of Nav1.7; type: cell-based; conditions: 0.2 μM; 15 s pre-pulses; control −52.62 ± 3.79 mV; P < 0.01 paired t-test; mean ± SEM, n = 6–11 cells
T1 construct: expressed in transfected cells; host or cells: HEK293T
T1 sequence (O60939 30-215): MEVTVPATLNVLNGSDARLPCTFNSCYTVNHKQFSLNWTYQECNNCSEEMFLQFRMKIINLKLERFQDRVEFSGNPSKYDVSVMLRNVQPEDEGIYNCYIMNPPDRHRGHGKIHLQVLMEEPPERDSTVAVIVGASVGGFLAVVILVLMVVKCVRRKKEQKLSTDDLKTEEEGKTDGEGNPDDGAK
T1 sequence (Q15858 other isoform, or with tags, fused parts or gaps): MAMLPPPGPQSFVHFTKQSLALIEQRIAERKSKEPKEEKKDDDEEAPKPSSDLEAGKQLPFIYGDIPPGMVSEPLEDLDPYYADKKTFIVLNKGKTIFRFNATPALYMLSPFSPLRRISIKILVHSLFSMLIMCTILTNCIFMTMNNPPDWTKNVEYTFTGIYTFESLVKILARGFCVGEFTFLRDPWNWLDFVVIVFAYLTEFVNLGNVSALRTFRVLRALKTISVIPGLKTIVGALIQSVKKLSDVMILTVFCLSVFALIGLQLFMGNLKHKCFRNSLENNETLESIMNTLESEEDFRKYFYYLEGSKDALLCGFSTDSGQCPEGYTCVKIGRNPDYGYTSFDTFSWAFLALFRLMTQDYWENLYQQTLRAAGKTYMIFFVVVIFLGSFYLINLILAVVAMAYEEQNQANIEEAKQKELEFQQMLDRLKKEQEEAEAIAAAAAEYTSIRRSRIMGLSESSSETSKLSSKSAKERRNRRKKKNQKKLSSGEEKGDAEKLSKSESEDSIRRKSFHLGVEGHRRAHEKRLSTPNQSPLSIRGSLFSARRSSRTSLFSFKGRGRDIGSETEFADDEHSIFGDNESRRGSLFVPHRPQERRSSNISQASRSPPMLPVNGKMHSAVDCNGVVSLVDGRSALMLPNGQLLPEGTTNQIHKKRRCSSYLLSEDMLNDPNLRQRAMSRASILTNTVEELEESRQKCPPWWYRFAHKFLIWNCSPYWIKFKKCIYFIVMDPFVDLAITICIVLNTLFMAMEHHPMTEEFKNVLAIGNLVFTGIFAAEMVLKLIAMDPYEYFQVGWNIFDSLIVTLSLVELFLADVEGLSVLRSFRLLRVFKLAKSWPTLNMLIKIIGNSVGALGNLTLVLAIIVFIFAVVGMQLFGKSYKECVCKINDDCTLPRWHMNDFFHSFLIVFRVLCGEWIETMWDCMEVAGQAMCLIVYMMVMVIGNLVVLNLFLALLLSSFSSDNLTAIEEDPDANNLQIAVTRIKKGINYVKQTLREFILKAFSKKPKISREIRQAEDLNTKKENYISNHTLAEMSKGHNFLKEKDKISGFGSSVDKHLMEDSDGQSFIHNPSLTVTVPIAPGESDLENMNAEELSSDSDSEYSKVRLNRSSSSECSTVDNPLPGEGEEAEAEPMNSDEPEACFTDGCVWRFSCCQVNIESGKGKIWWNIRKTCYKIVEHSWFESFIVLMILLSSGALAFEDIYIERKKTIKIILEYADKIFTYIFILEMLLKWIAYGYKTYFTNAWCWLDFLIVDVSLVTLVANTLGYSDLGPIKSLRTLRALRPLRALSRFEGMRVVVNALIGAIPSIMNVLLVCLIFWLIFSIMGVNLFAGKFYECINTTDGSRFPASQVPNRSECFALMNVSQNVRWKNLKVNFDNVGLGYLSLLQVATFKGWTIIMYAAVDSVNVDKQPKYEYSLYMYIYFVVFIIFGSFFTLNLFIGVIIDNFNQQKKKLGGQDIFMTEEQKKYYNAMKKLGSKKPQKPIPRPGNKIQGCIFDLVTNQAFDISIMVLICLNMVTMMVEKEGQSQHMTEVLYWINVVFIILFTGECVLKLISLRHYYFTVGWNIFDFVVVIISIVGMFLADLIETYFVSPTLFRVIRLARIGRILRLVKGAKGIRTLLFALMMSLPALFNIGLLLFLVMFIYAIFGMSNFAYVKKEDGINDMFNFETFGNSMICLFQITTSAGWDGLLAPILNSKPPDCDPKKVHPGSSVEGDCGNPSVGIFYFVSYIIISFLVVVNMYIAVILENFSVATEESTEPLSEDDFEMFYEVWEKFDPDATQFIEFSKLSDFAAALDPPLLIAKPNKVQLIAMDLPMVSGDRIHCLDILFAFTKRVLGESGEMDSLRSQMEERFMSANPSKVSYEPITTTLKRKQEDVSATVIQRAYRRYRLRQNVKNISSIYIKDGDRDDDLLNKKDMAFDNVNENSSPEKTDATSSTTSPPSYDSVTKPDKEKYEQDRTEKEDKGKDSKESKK
T1 sequence (Q07699 19-218, further chain): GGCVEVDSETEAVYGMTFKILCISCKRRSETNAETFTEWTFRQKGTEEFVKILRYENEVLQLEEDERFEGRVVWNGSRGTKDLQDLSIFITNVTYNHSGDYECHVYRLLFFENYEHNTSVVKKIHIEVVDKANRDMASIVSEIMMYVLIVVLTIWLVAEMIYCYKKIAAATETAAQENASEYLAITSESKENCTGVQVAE
Description: (§1) The cDNA genes encoding rat Nav1.4 and human Nav1.7 were subcloned into vectors pRGB4 and pcDNA3.1-mod, respectively. Mutations of rNav1.4 (N655D, Q657E, and N655D/Q657E) and hNav1.7 (D816N, E818Q, and D816N/E818Q) were constructed using the Gene Tailor Site-Directed Mutagenesis system (Invitrogen, Carlsbad, CA, United States), according to the manufacturer’s instructions. Nav1.2–Nav1.7 and mutant plasmids together with eGFP were transiently transfected into HEK293T cells while Nav1.8 together with eGFP was transiently transfected into ND7/23 cells by Lipofectamine 2000 (Invitrogen, Carlsbad, CA, United States). […] Cells with green fluorescent protein fluorescence were selected for whole-cell patch-clamp recordings 24 h after transfection.
(§2) Whole-cell patch-clamp recordings were performed at room temperature (20–25°C) using an EPC 10 USB Patch Clamp Amplifier (HEKA, Elektronik, Lambrecht, Germany). […] Data was analyzed by software Igo Pro 6.10A (WaveMetrics, Lake Oswego, OR, United States), SigmaPlot 10.0 (Sigma-Aldrich, St. Louis, MO, United States), OriginPro 8 (OriginLab Corp., Northampton, MA, United States), and GraphPad Prism 5 (GraphPad Software, San Diego, CA, United States). […]
Fast inactivation time constants were calculated by fitting current decay traces with a single exponential function using the I–V protocol described above. […]

Nav1.4/N655D/Q657E = target: T2, Nav1.4/N655D/Q657E (Rattus norvegicus, UniProt P15390, N655D/Q657E); assay: Whole-cell patch-clamp, Nav1.4/N655D/Q657E in HEK293T cells; type: cell-based
T2 construct: expressed in transfected cells; host or cells: HEK293T
T2 sequence (P15390 whole entry N655D/Q657E): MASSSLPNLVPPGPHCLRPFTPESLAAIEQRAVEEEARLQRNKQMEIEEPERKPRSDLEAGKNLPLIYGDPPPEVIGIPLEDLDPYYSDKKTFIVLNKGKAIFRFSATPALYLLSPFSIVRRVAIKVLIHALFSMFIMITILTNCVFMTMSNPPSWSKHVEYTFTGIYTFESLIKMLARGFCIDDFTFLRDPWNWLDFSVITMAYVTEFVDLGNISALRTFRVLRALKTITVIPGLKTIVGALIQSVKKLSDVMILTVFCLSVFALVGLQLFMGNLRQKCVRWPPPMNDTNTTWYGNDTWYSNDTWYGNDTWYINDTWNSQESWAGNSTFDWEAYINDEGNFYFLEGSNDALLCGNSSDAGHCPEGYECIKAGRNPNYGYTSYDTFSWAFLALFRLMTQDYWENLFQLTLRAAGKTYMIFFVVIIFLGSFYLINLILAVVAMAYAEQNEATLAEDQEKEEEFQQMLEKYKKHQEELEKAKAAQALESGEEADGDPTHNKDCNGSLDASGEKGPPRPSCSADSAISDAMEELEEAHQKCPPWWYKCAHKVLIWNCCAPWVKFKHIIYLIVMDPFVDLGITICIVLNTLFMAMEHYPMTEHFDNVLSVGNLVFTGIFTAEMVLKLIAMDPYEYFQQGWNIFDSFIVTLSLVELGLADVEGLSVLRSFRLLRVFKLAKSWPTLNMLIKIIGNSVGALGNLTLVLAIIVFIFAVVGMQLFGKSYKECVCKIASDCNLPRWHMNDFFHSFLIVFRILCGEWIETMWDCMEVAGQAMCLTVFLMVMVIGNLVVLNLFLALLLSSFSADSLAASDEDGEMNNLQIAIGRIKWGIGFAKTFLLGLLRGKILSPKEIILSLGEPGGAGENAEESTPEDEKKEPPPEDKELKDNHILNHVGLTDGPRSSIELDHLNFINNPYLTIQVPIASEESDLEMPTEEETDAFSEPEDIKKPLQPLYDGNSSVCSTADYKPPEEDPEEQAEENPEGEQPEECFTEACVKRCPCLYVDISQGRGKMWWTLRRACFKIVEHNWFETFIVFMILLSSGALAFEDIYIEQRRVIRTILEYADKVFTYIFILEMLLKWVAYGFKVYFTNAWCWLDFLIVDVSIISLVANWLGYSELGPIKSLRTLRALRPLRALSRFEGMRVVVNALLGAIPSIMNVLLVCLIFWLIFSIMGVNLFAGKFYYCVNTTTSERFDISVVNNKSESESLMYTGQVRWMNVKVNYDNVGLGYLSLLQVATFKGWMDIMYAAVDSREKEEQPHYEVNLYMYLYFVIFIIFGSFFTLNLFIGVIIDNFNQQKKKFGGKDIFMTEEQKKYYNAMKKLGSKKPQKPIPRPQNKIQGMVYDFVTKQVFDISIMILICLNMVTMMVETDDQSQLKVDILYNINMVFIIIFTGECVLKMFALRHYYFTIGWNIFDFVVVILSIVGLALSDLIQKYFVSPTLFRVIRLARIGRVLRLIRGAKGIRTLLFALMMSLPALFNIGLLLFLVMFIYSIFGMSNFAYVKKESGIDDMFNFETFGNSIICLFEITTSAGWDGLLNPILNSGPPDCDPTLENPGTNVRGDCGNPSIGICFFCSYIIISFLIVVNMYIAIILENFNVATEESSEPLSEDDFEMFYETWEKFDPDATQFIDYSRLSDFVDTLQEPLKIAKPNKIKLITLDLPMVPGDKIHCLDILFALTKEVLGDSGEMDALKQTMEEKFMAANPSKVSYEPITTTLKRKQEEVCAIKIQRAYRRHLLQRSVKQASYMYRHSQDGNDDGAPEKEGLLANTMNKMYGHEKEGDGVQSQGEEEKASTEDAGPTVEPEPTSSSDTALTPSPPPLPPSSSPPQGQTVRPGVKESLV
Description: as §1, with “States). Additionally, plasmids β1- and β2-eGFP encoding the human β1 and β2 subunits, respectively, were co-transfected with those encoding WT Nav1.7 and Nav1.7 mutations in HEK293T cells.” for “States).”
as §2

## CC(C)C[C@H](NC(=O)[C@H](CC(=O)O)NC(=O)[C@H](Cc1ccc(O)cc1)NC(=O)[C@H](CCCCN)NC(=O)[C@@H]1CSSC[C@@H]2NC(=O)[C@H](CCCCN)NC(=O)[C@H](CC(=O)O)NC(=O)[C@H](CC(N)=O)NC(=O)[C@H](CO)NC(=O)[C@@H]3CCCN3C(=O)[C@H](CC(N)=O)NC(=O)[C@@H]3CSSC[C@H](NC(=O)[C@H](C(C)C)NC(=O)[C@H](CC(C)C)NC(=O)[C@H](CO)NC(=O)[C@H](CO)NC(=O)[C@H](CO)NC(=O)[C@H](CCCCN)NC(=O)[C@H](CSSC[C@H](NC(=O)[C@H](C)N)C(=O)N[C@@H](CC(C)C)C(=O)NCC(=O)N[C@@H](Cc4ccccc4)C(=O)NCC(=O)N[C@@H](CCC(=O)O)C(=O)N[C@@H](CCCCN)C(=O)N3)NC2=O)C(=O)N[C@@H](CO)C(=O)N[C@@H](CCC(N)=O)C(=O)N[C@@H](CCCCN)C(=O)N[C@@H](Cc2c[nH]cn2)C(=O)N[C@@H](CCCCN)C(=O)N[C@@H](Cc2c[nH]c3ccccc23)C(=O)N1)C(=O)O [Ca2a] (H-ACLGFGEKCNPSNDKCCKSSSLVCSQKHKWCKYDL-OH; disulfide 2-17, 9-24, 16-31 (inferred); N-terminus and C-terminus assumed)
Nav1.7
  steady-state slow inactivation potential of Nav1.7: −72.00 ± 2.76 mV
Nav1.4/N655D/Q657E; 1 μM, n = 4–5 cells
  inhibition of peak current of Nav1.4/N655D/Q657E: significantly inhibited
Nav1.4/N655D/Q657E; mean ± SEM, n = 4–5 cells per data point
  IC50: 238 ± 26.1 nM
